target: PDE10 (UniProt Q9Y233); assay: PDE10 enzyme inhibition, IMAP TR-FRET assay (MPDE10A7 Enzyme Activity and Inhibition); type: biochemical; settings: IC50 class against PDE10; read-out: IC50
Description: All compounds were divided in five classes based on their IC50 values against PDE10. The range of the IC50 in each class is as follows:
An IMAP TR-FRET assay was used to analyze the enzyme activity (Molecular Devices Corp., Sunnyvale Calif.). 5 μL of serial diluted PDE10A (BPS Bioscience, San Diego, Calif.) or tissue homogenate was incubated with equal volumes of diluted fluorescein labeled cAMP or cGMP for 60 min in 384-well polystyrene assay plates (Corning, Corning, N.Y.) at room temperature. After incubation, the reaction was stopped by adding 60 μL of diluted binding reagents and was incubated for 3 hours to overnight at room temperature. The plates were read on an Envision (Perkin Elmer, Waltham, Mass.) for time resolved fluorescence resonance energy transfer. The data were analyzed with GraphPad Prism (La Jolla, Calif.).
Enzyme Inhibition. To check the inhibition profile, 5 μL of serial diluted compounds were incubated with 5 μL of diluted PDE10 enzyme (BPS Bioscience, San Diego, Calif.) or tissue homogenate in a 384-well polystyrene assay plate (Corning, Corning, N.Y.) for 30 min at room temperature. After incubation, 10 μL of diluted fluorescein labeled cAMP or cGMP substrate were added and incubated for 60 min at room temperature. The reaction was stopped by adding 60 μL of diluted binding reagents and plates were read on an Envision (Perkin Elmer, Waltham, Mass.) for time resolved fluorescence resonance energy transfer. The data were analyzed with GraphPad Prism (La Jolla, Calif.).
The tabulated IC50 data represent an average IC50 data for each compound.

Row | SMILES | IC50 [nM]
1 | CC(=O)OC(C)C(=O)N1CCC(c2nccnc2Oc2ccc(C(=O)c3nc4ccccc4[nH]3)cc2)CC1 (centres unmarked) [Example 238, 1-(4-(3-(4-(1H-benzo[d]imidazole-2-carbonyl)phenoxy)pyrazin-2-yl)piperidin-1-yl)-1-oxopropan-2-yl acetate] | < 25
2 | Cc1nc2c([nH]1)CCN(c1nccnc1Oc1ccc(Nc3nc4ccccc4s3)cc1)C2 [Example 82, N-(4-(3-(2-methyl-6,7-dihydro-1H-imidazo[4,5-c]pyridin-5(4H)-yl)pyrazin-2-yloxy)phenyl)benzo-[d]thiazol-2-amine] | 100 to 250
3 | c1ccc2sc(Nc3ccc(Oc4nccnc4C4CCCOC4)cc3)nc2c1 (centres unmarked) [Example 193, N-(4-(3-(tetrahydro-2H-pyran-3-yl)pyrazin-2-yloxy)phenyl)benzo[d]thiazol-2-amine] | < 25
4 | O=C(c1ccc(Oc2nccnc2C2CCN(CCF)CC2)cc1)c1nc2ccccc2[nH]1 [Example 226, (1H-BENZO[D]IMIDAZOL-2-YL)(4-(3-(1-(2-FLUOROETHYL)PIPERIDIN-4-YL)PYRAZIN-2-YLOXY)PHENYL)METHANONE] | < 25
5 | CN(C)CC(=O)N1CCC(c2nccnc2Oc2ccc(C(=O)c3nc4ccccc4[nH]3)cc2)CC1 [Example 245, 1-(4-(3-(4-(1H-benzo[d]imidazole-2-carbonyl)phenoxy)pyrazin-2-yl)piperidin-1-yl)-2-(dimethylamino) ethanone] | < 25
6 | OCc1ccc(-c2nccnc2Oc2ccc(Nc3nc4ccccc4s3)cc2)cn1 [Example 146, (5-(3-(4-(benzo[d]thiazol-2-ylamino)phenoxy)pyrazin-2-yl)pyridin-2-yl)methanol] | 25 to 100
7 | N#CC1CCN(c2nccnc2Oc2ccc(Nc3nc4ccccc4s3)cc2)C1 (centres unmarked) [Example 84, 1-(3-(4-(benzo[d]thiazol-2-ylamino)phenoxy)pyrazin-2-yl)pyrrolidine-3-carbonitrile] | < 25
8 | Clc1ccc(-c2nccnc2Oc2ccc(Nc3nc4ccccc4s3)cc2)cn1 [Example 145, N-(4-(3-(6-chloropyridin-3-yl)pyrazin-2-yloxy)phenyl)benzo[d]thiazol-2-amine] | < 25

same assay, conditions: PDE10 enzyme inhibition; average IC50 data for each compound; read-out: Average IC50

Row | SMILES | IC50 [nM]
9 | CC(C)(C)OC(=O)N1CCC(CO)(c2nccnc2Oc2ccc(Nc3nc4ccccc4s3)cc2)CC1 [drawing 875] | 251
10 | Cc1ncsc1CCOc1nccnc1Oc1ccc(C(=O)c2nc3ccccc3[nH]2)cc1 [drawing 853] | 1.86
11 | CCOC(=O)C1CCN(c2nccnc2Oc2ccc(C(=O)c3nc4ccccc4[nH]3)cc2)CC1 | 5.19
12 | O=C(c1ccc(Oc2nccnc2OCCc2ccccn2)cc1)c1nc2ccccc2[nH]1 [drawing 860] | 8.05
13 | COC[C@@H]1CCCN1c1nccnc1Oc1ccc(C(=O)c2nc3ccccc3[nH]2)cc1 | 1.37
14 | COc1ncccc1-c1nccnc1Oc1ccc(C(=O)c2nc3ccccc3n2CCF)cc1 [drawing 994] | 5.83
15 | COc1ccc(-c2nccnc2Oc2ccc(C(=O)c3nc4ccccc4[nH]3)cc2)cn1 [drawing 876] | 14.2
16 | COC(=O)N1CCC(c2nccnc2Oc2ccc(Nc3nc4ccccc4s3)cc2)CC1 | 0.206
17 | CC(=O)N1CCC(c2nccnc2Oc2ccc(Nc3nc4ccccc4s3)nc2)CC1 [drawing 992] | 0.59
18 | CCOC(=O)[C@@H]1CCCN(c2nccnc2Oc2ccc(C(=O)c3nc4ccccc4[nH]3)cc2)C1 [drawing 830] | 10.8
19 | N#Cc1ccc(-c2nccnc2Oc2ccc(Nc3nc4ccccc4s3)cc2)cn1 [drawing 777] | 63.8
20 | O=C(c1ccc(Oc2nccnc2N2CCC[C@H]2CO)cc1)c1nc2ccccc2[nH]1 | 1.12
21 | COc1cncc(-c2nccnc2Oc2ccc(Nc3nc4ccccc4s3)cc2)c1 [drawing 918] | 12.2
22 | COc1ncccc1-c1nccnc1Oc1ccc([C@H](O)c2nc3ccccc3[nH]2)cc1 (stereo in doubt) | 14.9
23 | O=C(c1ccc(Oc2nccnc2Cl)cc1)c1nc2ccccc2[nH]1 [drawing 714] | 287
